From patent US8017602B2, “N-(2-(2-(5-hydroxy-3-oxo-3,4-dihydro-2H-benzo[b][1,4]oxazin-8-yl)ethylamino)ethyl)-3-(phenethoxy)propanamide derivatives, processes for their preparation, pharmaceutical compositions containing them and their use in therapy” (AstraZeneca AB, priority 2008, dated 2011)
Structures can show the parent of a compound that is named as a salt.

Molecular target: T1, Adrenergic β2 (Homo sapiens, UniProt P07550)
T1 construct: Adherent H292 cells were removed from tissue culture flasks; endogenous in cells; host or cells: H292 cells
T1 sequence (P07550 whole entry): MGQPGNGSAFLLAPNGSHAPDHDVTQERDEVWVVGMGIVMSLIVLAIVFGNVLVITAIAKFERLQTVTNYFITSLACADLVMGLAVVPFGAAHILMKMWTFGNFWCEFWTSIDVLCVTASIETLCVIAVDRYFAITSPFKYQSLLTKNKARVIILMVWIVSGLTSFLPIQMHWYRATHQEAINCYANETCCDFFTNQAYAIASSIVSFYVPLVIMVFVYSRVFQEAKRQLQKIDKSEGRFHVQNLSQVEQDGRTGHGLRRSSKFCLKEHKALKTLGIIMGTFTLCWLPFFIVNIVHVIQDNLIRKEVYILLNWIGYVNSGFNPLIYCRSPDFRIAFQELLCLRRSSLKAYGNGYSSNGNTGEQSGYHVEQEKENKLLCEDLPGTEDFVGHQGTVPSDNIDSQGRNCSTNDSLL
Assay: Adrenergic β2 mediated cAMP production in H292 cells (AlphaScreen cAMP detection)
Format: cell-based
Details: for β2 Int Act: Intrinsic Activity, fraction relative to the maximum activity determined for formoterol; for EC50: cAMP production, 60 min at room temperature, 300 μM rolipram, read-out: β2 pEC50 (converted)
Procedure: H292 cells were grown in 225 cm2 flasks incubator at 37° C., 5% CO2 in RPMI medium containing, 10% (v/v) FBS (foetal bovine serum) and 2 mM L-glutamine.
Adherent H292 cells were removed from tissue culture flasks by treatment with Accutase™ cell detachment solution for 15 min. Flasks were incubated for 15 min in a humidified incubator at 37° C., 5% CO2. Detached cells were re-suspended in RPMI media (containing 10% (v/v) FBS and 2 mM L-glutamine) at […]. 10000 cells in 100 μl were added to each well of a tissue-culture-treated 96-well plate and the cells incubated overnight in a humidified incubator at 37° C., 5% CO2. The culture media was removed and cells were washed twice with 100 μl assay buffer and replaced with 50 μL assay buffer (HBSS solution containing 10 mM HEPES pH7.4 and 5 mM glucose). Cells were rested at room temperature for 20 min after which time 25 μl of rolipram (1.2 mM made up in assay buffer containing 2.4% (v/v) dimethylsulphoxide) was added. Cells were incubated with rolipram for 10 min after which time test compounds were added and the cells were incubated for 60 min at room temperature. The final rolipram concentration in the assay was 300 μM and final vehicle concentration was 1.6% (v/v) dimethylsulphoxide. The reaction was stopped by removing supernatants, washing once with 100 μL assay buffer and replacing with 50 μL lysis buffer. The cell monolayer was frozen at −80° C. for 30 min (or overnight).
AlphaScreen™ cAMP Detection
The concentration of cAMP (cyclic adenosine monophosphate) in the cell lysate was determined using AlphaScreen™ methodology. The frozen cell plate was thawed for 20 min on a plate shaker then 10 μl of the cell lysate was transferred to a 96-well white plate. 40 μL of mixed AlphaScreen™ detection beads pre-incubated with biotinylated cAMP, was added to each well and the plate incubated at room temperature for 10 h in the dark. The AlphaScreen™ signal was measured using an EnVision spectrophotometer (Perkin-Elmer Inc.) with the recommended manufacturer's settings. cAMP concentrations were determined by reference to a calibration curve determined in the same experiment using standard cAMP concentrations. Concentration response curves for agonists were constructed and data was fitted to a four parameter logistic equation to determine both the pEC50 and Intrinsic Activity. Intrinsic Activity was expressed as a fraction relative to the maximum activity determined for formoterol in each experiment.

Structure (SMILES) | β2 Int Act | EC50
Cc1c(-c2cccc(CCOCCC(=O)N(CCNCCc3ccc(O)c4c3OCC(=O)N4)C3CCCCC3)c2)cnn1C [Example 37, N-Cyclohexyl-3-(3-(1,5-dimethyl-1H-pyrazol-4-yl)phenethoxy)-N-(2-(2-(5-hydroxy-3-oxo-3,4-dihydro-2H-benzo[b][1,4]oxazin-8-yl)ethylamino)ethyl)propanamide Trifluoroacetic Acid Salt] | 0.85 | 6.31 nM
COCCn1cc(-c2cccc(CCOCCC(=O)N(CCNCCc3ccc(O)c4c3OCC(=O)N4)C3CCCCC3)c2)cn1 [Example 36, N-Cyclohexyl-N-(2-(2-(5-hydroxy-3-oxo-3,4-dihydro-2H-benzo[b][1,4]oxazin-8-yl)ethylamino)ethyl)-3-(3-(1-(2-methoxyethyl)-1H-pyrazol-4-yl)phenethoxy)propanamide Trifluoroacetic Acid Salt] | 1.05 | 20 nM
Cn1cc(-c2cc(F)cc(CCOCCC(=O)N(CCNCCc3ccc(O)c4c3OCC(=O)N4)C3CCCCC3)c2)cn1 [Example 17, N-Cyclohexyl-3-(3-fluoro-5-(1-methyl-1H-pyrazol-4-yl)phenethoxy)-N-(2-(2-(5-hydroxy-3-oxo-3,4-dihydro-2H-benzo[b][1,4]oxazin-8-yl)ethylamino)ethyl)propanamide Trifluoroacetic Acid Salt] | 0.94 | 7.94 nM
Cn1nccc1-c1cccc(CCOCCC(=O)N(CCNCCc2ccc(O)c3c2OCC(=O)N3)C2CCCCC2)c1 [Example 03, N-Cyclohexyl-N-(2-(2-(5-hydroxy-3-oxo-3,4-dihydro-2H-benzo[b][1,4]oxazin-8-yl)ethylamino)ethyl)-3-(3-(1-methyl-1H-pyrazol-5-yl)phenethoxy)propanamide Trifluoroacetic Acid Salt] | 0.81 | 10 nM
CCn1ccnc1-c1cccc(CCOCCC(=O)N(CCNCCc2ccc(O)c3c2OCC(=O)N3)C2CCCCC2)c1 [Example 29, N-Cyclohexyl-3-(3-(1-ethyl-1H-imidazol-2-yl)phenethoxy)-N-(2-(2-(5-hydroxy-3-oxo-3,4-dihydro-2H-benzo[b][1,4]oxazin-8-yl)ethylamino)ethyl)propanamide Trifluoroacetic Acid Salt] | 0.90 | 50.1 nM
Cn1cc(-c2cccc(CCOCCC(=O)N(CCNCCc3ccc(O)c4c3OCC(=O)N4)C3CCCCC3)c2)nn1 [Example 05, N-Cyclohexyl-N-(2-(2-(5-hydroxy-3-oxo-3,4-dihydro-2H-benzo[b][1,4]oxazin-8-yl)ethylamino)ethyl)-3-(3-(1-methyl-1H-1,2,3-triazol-4-yl)phenethoxy)propanamide Trifluoroacetic Acid Salt] | 0.87 | 7.94 nM
O=C1COc2c(CCNCCN(C(=O)CCOCCc3cccc(-c4c[nH]nn4)c3)C3CCCCC3)ccc(O)c2N1 [Example 14, 3-(3-(1H-1,2,3-Triazol-4-yl)phenethoxy)-N-cyclohexyl-N-(2-(2-(5-hydroxy-3-oxo-3,4-dihydro-2H-benzo[b][1,4]oxazin-8-yl)ethylamino)ethyl)propanamide Trifluoroacetic Acid Salt] | 0.95 | 7.94 nM
Cn1ccnc1-c1cccc(CCOCCC(=O)N(CCNCCc2ccc(O)c3c2OCC(=O)N3)C2CCCCC2)c1 [Example 33, N-Cyclohexyl-N-(2-(2-(5-hydroxy-3-oxo-3,4-dihydro-2H-benzo[b][1,4]oxazin-8-yl)ethylamino)ethyl)-3-(3-(1-methyl-1H-imidazol-2-yl)phenethoxy)propanamide] | 0.93 | 12.6 nM
Cn1cc(-c2cccc(CCOCCC(=O)N(CCNCCc3ccc(O)c4c3OCC(=O)N4)C3CCCCC3)c2F)cn1 [Example 16, N-Cyclohexyl-3-(2-fluoro-3-(1-methyl-1H-pyrazol-4-yl)phenethoxy)-N-(2-(2-(5-hydroxy-3-oxo-3,4-dihydro-2H-benzo[b][1,4]oxazin-8-yl)ethylamino)ethyl)propanamide Trifluoroacetic Acid Salt] | 1.00 | 12.6 nM
CCn1cc(-c2cccc(CCOCCC(=O)N(CCNCCc3ccc(O)c4c3OCC(=O)N4)C3CCCC3)c2)cn1 [Example 24, N-Cyclopentyl-3-(3-(1-ethyl-1H-pyrazol-4-yl)phenethoxy)-N-(2-(2-(5-hydroxy-3-oxo-3,4-dihydro-2H-benzo[b][1,4]oxazin-8-yl)ethylamino)ethyl)propanamide Trifluoroacetic Acid Salt] | 0.95 | 7.94 nM
Cc1nc(-c2cccc(CCOCCC(=O)N(CCNCCc3ccc(O)c4c3OCC(=O)N4)C3CCCCC3)c2)[nH]c1C [Example 32, N-Cyclohexyl-3-(3-(4,5-dimethyl-1H-imidazol-2-yl)phenethoxy)-N-(2-(2-(5-hydroxy-3-oxo-3,4-dihydro-2H-benzo[b][1,4]oxazin-8-yl)ethylamino)ethyl)propanamide] | 1.00 | 7.94 nM
